Measured values as given in patent US10022315B2, “Oral composition for reinforcing skin tolerance following topical administration of a retinoid compound” (NUTRICOS TECHNOLOGIES, priority 2012, dated 2018).

Columns and labels:
Type in all cases: in vivo, human
[1] = system: menopausal women; experiment: Clinical study: evaluation by dermatologists of skin signs associated with the side effects of retinoic acid (score 0-9, on the face); settings: scale 0-9, face
Method: (§1) The beneficial effect, in terms of reinforcing skin tolerance, of the food supplement of example 1 was assessed in a clinical study carried out according to the protocol which follows:
(§2) The study performed under dermatological control (30 dermatologists) was carried out in menopausal women (n=203), from 50 to 66 years old and showing moderate signs of photo-aging on the face.
(§3) These women were divided up into two treatment groups: • group 1 treated with 0.05% by weight retinoic acid, relative to the total weight of the composition, for 6 months at a rate of one application per day (control group), • group 2 treated with 0.05% by weight retinoic acid, relative to the total weight of the composition, for 6 months at a rate of one application per day, combined with daily intake of the food supplement as described in example 1. 3.1 Evaluation of Symptoms
(§4) The symptoms associated with skin tolerance were evaluated after 60, 120 and 180 days by, on the one hand, dermatologists and, on the other hand, by the subjects themselves.
Dermatologist Scoring Scale

[2] = system: menopausal women; experiment: Clinical study: evaluation by the patients of skin signs associated with the side effects of retinoic acid (none/mild/moderate/severe, on the face)
Method: as §1, §2, §3, §4
During the last 2 months, have you experienced on the face

[3] = system: menopausal women; experiment: Clinical study: overall evaluation of skin tolerance to the treatments by the dermatologists (questionnaire)
Method: as §1, §2, §3
(§5) Skin tolerance to the treatments was checked after 60, 120 and 180 days by means of questionnaires given to the dermatologists and the subjects participating in the study.
(§6) Tables 1 (evaluations by the dermatologists) and 2 (self-evaluation by the subjects) summarize the skin tolerance results obtained in groups 1 and 2. The results are expressed as of subjects, in reply to the following question: “do you consider thus far that the tolerance to the treatment is”. The possible replies were excellent, good, average and poor.

[4] = system: menopausal women; experiment: Clinical study: overall evaluation of skin tolerance to the treatments by the subjects (questionnaire)
Method: as §1, §2, §3, §5, §6

`CC1=C(/C=C/C(C)=C/C=C/C(C)=C/C(=O)O)C(C)(C)CCC1` [GROUP 1, retinoic acid] was tested, and the “Pruritus, mean score (dermatologists)” value ([1]; D0) was 0.6, the “Sign of desquamation, mean score (dermatologists)” value ([1]; D0) was 1.6 and the “Sign of redness, mean score (dermatologists)” value ([1]; D0) was 1.2. The “Sign of skin dryness, mean score (dermatologists)” value ([1]; D0) was 3.2, the “Pruritus, mean score (dermatologists)” value ([1]; D60) was 1.2 and the “Sign of desquamation, mean score (dermatologists)” value ([1]; D60) was 1.8. The “Sign of redness, mean score (dermatologists)” value ([1]; D60) was 1.6, the “Sign of skin dryness, mean score (dermatologists)” value ([1]; D60) was 2.7 and the “Pruritus, mean score (dermatologists)” value ([1]; D120) was 0.9. For the same compound, the “Sign of desquamation, mean score (dermatologists)” value ([1]; D120) was 1.5, the “Sign of redness, mean score (dermatologists)” value ([1]; D120) was 1.3 and the “Sign of skin dryness, mean score (dermatologists)” value ([1]; D120) was 2.2. For the same compound, the “Pruritus, mean score (dermatologists)” value ([1]; D180) was 0.6, the “Sign of desquamation, mean score (dermatologists)” value ([1]; D180) was 1.1 and the “Sign of redness, mean score (dermatologists)” value ([1]; D180) was 1.0. For the same compound, the “Sign of skin dryness, mean score (dermatologists)” value ([1]; D180) was 1.7, the “Desquamation, patients replying mild (Mi)” value (“Desquamation … (Mi)” below) ([2]; D60) was 41% and the “Desquamation, patients replying moderate (Mo)” value (shortened to “Desquamation … (Mo)”) ([2]; D60) was 21%. For the same compound, the “Desquamation, patients replying severe (S)” value (“Desquamation … (S)” for short) ([2]; D60) was 1%, the “Redness, patients replying mild (Mi)” value ([2]; D60) was 46% and the “Redness, patients replying moderate (Mo)” value ([2]; D60) was 13%. For the same compound, the “Redness, patients replying severe (S)” value ([2]; D60) was 0%, the “Signs of discomfort, patients replying mild (Mi)” value (shortened to “Signs of discomfort … (Mi)”) ([2]; D60) was 42% and the “Signs of discomfort, patients replying moderate (Mo)” value (“Signs of discomfort … (Mo)” below) ([2]; D60) was 15%. The “Signs of discomfort, patients replying severe (S)” value (from here on “Signs of discomfort … (S)”) ([2]; D60) was 0%, the “Tautness, patients replying mild (Mi)” value ([2]; D60) was 49% and the “Tautness, patients replying moderate (Mo)” value (from here on “Tautness … (Mo)”) ([2]; D60) was 10%. For the same compound, the “Tautness, patients replying severe (S)” value ([2]; D60) was 1%, the “Desquamation … (Mi)” value ([2]; D120) was 42% and the “Desquamation … (Mo)” value ([2]; D120) was 14%. The “Desquamation … (S)” value ([2]; D120) was 0%, the “Itching, patients replying mild (Mi)” value ([2]; D120) was 42% and the “Itching, patients replying moderate (Mo)” value ([2]; D120) was 7%. For the same compound, the “Itching, patients replying severe (S)” value ([2]; D120) was 0%, the “Redness, patients replying mild (Mi)” value ([2]; D120) was 49% and the “Redness, patients replying moderate (Mo)” value ([2]; D120) was 7%. For the same compound, the “Redness, patients replying severe (S)” value ([2]; D120) was 1%, the “Signs of discomfort … (Mi)” value ([2]; D120) was 35% and the “Signs of discomfort … (Mo)” value ([2]; D120) was 13%. For the same compound, the “Signs of discomfort … (S)” value ([2]; D120) was 0%, the “Tautness, patients replying mild (Mi)” value ([2]; D120) was 43% and the “Tautness … (Mo)” value ([2]; D120) was 8%. For the same compound, the “Tautness, patients replying severe (S)” value ([2]; D120) was 0%, the “Desquamation … (Mi)” value ([2]; D180) was 35% and the “Desquamation … (Mo)” value ([2]; D180) was 8%. The “Desquamation … (S)” value ([2]; D180) was 0%, the “Itching, patients replying mild (Mi)” value ([2]; D180) was 35% and the “Itching, patients replying moderate (Mo)” value ([2]; D180) was 4%. The “Itching, patients replying severe (S)” value ([2]; D180) was 0%, the “Redness, patients replying mild (Mi)” value ([2]; D180) was 35% and the “Redness, patients replying moderate (Mo)” value ([2]; D180) was 6%. The “Redness, patients replying severe (S)” value ([2]; D180) was 0%, the “Signs of discomfort … (Mi)” value ([2]; D180) was 31% and the “Signs of discomfort … (Mo)” value ([2]; D180) was 7%. For the same compound, the “Signs of discomfort … (S)” value ([2]; D180) was 0%, the “Tautness, patients replying mild (Mi)” value ([2]; D180) was 35% and the “Tautness … (Mo)” value ([2]; D180) was 7%. For the same compound, the “Tautness, patients replying severe (S)” value ([2]; D180) was 1%, the “Itching, patients replying mild (Mi)” value ([2]; J60 (D60)) was 48% and the “Itching, patients replying moderate (Mo)” value ([2]; J60 (D60)) was 15%. For the same compound, the “Itching, patients replying severe (S)” value ([2]; J60 (D60)) was 0%, the “Tolerance to the treatment judged Average by the dermatologists, subjects” value ([3]; D60) was 24% and the “Tolerance to the treatment judged Excellent by the dermatologists, subjects” value ([3]; D60) was 15%. For the same compound, the “Tolerance to the treatment judged Good by the dermatologists, subjects” value ([3]; D60) was 62%, the “Tolerance to the treatment judged Poor by the dermatologists, subjects” value ([3]; D60) was 0% and the “Tolerance to the treatment judged Average by the dermatologists, subjects” value ([3]; D120) was 23%. The “Tolerance to the treatment judged Excellent by the dermatologists, subjects” value ([3]; D120) was 20%, the “Tolerance to the treatment judged Good by the dermatologists, subjects” value ([3]; D120) was 58% and the “Tolerance to the treatment judged Poor by the dermatologists, subjects” value ([3]; D120) was 0%. The “Tolerance to the treatment judged Average by the dermatologists, subjects” value ([3]; D180) was 15%, the “Tolerance to the treatment judged Excellent by the dermatologists, subjects” value ([3]; D180) was 23% and the “Tolerance to the treatment judged Good by the dermatologists, subjects” value ([3]; D180) was 63%. For the same compound, the “Tolerance to the treatment judged Poor by the dermatologists, subjects” value ([3]; D180) was 0%, the “Tolerance to the treatment judged Average by the subjects, subjects” value ([4]; D60) was 20% and the “Tolerance to the treatment judged Excellent by the subjects, subjects” value ([4]; D60) was 18%. The “Tolerance to the treatment judged Good by the subjects, subjects” value ([4]; D60) was 63%, the “Tolerance to the treatment judged Poor by the subjects, subjects” value ([4]; D60) was 0% and the “Tolerance to the treatment judged Average by the subjects, subjects” value ([4]; D120) was 21%. For the same compound, the “Tolerance to the treatment judged Excellent by the subjects, subjects” value ([4]; D120) was 25%, the “Tolerance to the treatment judged Good by the subjects, subjects” value ([4]; D120) was 54% and the “Tolerance to the treatment judged Poor by the subjects, subjects” value ([4]; D120) was 1%. For the same compound, the “Tolerance to the treatment judged Average by the subjects, subjects” value ([4]; D180) was 15%, the “Tolerance to the treatment judged Excellent by the subjects, subjects” value ([4]; D180) was 30% and the “Tolerance to the treatment judged Good by the subjects, subjects” value ([4]; D180) was 53%. For the same compound, the “Tolerance to the treatment judged Poor by the subjects, subjects” value ([4]; D180) was 2%.
